Measurements from publication PMC2920814 (PLoS ONE, 2010).
Several values for one entry are separate records, joined by “and”; a condition that tells them apart may be missing. Equal entries are not always repeated. Entries after “also recorded” stand apart in the source; their conditions may differ.

Experiments:
[1] = target: Erk2 (Mus musculus, UniProt P63085); test: Affinity chromatography on immobilized drugs, Western blotting; assay type: binding; conditions: adult mouse brain extract 500 µg, sepharose beads
Erk2, sequence (P63085 whole entry): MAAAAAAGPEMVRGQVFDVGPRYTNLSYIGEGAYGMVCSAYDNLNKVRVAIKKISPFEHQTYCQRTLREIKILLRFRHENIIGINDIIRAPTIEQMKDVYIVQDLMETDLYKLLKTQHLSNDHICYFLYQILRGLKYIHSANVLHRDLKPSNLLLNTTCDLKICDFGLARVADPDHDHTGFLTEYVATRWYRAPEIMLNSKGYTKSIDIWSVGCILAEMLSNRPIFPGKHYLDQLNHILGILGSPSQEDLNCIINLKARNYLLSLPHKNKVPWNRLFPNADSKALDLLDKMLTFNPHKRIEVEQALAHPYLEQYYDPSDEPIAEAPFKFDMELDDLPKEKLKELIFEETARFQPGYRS

[2] = target: T1, pyridoxal kinase (PDXK) (Mus musculus, UniProt Q8K183); test: as above; assay type: binding; conditions: adult mouse brain extract 500 µg, sepharose beads
T1 sequence (Q8K183 1-312): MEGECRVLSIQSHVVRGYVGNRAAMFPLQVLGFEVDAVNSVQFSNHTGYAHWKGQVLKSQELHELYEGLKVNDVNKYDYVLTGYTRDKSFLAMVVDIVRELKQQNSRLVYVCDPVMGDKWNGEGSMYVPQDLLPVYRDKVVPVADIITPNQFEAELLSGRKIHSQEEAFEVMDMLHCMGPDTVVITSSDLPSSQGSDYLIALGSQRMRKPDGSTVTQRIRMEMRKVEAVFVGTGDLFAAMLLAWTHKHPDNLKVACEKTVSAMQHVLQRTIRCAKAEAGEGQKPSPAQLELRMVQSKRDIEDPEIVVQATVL

[3] = tested on: permanent focal cerebral ischemia (pMCAo) in adult mice; test: Permanent middle cerebral artery occlusion (pMCAo), infarct volumes by TTC staining; assay type: in vivo, mouse (C57 b/6); conditions: 3 hrs after occlusion
[4] = Blood brain barrier permeability, brain and plasma level after IV injection (LC/MS/MS); assay type: in vivo; conditions: SD, rat, brain, sampling time 15 min, healthy adult rats, n = 2
Procedure: Dosed animals were sacrificed at 15 min after the end of the intravenous injection. Blood were collected through the retro-orbital sinus using a capillary tube. Animals were then perfused with saline solution into the heart to […] the brain. Brain was collected, and homogenized. Both plasma and brain samples were analyzed using LC/MS/MS determination, according to ADME-Bioanalysis (Vergeze, France) procedures.

[5] = tested on: E18 mixed hippocampal cell cultures; test: Kainate (KA)-induced neuronal excitotoxicity, PI staining; assay type: cell-based, rat (Wistar); conditions: KA 200 µM for 5 hrs; for neuroprotective effect on KA-induced neuronal death (relative neuronal death): 10 div cultures, compound added with KA, 0.05 to 50 µM
[6] = tested on: CDK1/CyclB; parameters: method as in PMID 15975926, PMID 15985434; conditions: previously described; ref [30], [31]; cited from earlier work
[7] = tested on: CDK2/CyclE; parameters: method as in PMID 15975926, PMID 15985434; conditions: previously described; ref [30], [31]; cited from earlier work
[8] = tested on: CDK5/p25; parameters: method as in PMID 15975926, PMID 15985434; conditions: previously described; ref [30], [31]; cited from earlier work
[9] = tested on: ERK2; parameters: method as in PMID 15975926, PMID 15985434; conditions: previously described; ref [30], [31]; cited from earlier work
[10] = tested on: CK1; parameters: method as in PMID 15975926, PMID 15985434; conditions: previously described; ref [30], [31]; cited from earlier work
[11] = ICV infusion 500 µM starting 48 hrs before pMCAo
[12] = IP 25 mg/kg 15 min pre- and 1 hr post-MCAo, 25 mg/kg

Structure (SMILES)	binding of Erk2 to immobilized compound [1]	binding of PDXK to immobilized compound [2]	decrease of the total infarct volume compared to vehicle [3, 11]	ischemic core volume compared to vehicle [3, 11]	reduction of the ischemic (hypometabolic) zone volume compared to vehicle [3, 11]	ischemic core volume compared to vehicle ([3]; IP 25 mg/kg 15 min pre- and 1 hr post-MCAo)	decrease of the ischemic (hypometabolic) zone volume compared to vehicle [3, 12]	decrease of the total infarct volume compared to vehicle [3, 12]	Kp at 0.25 h ([4]; 20 mg/kg, i.v. 20 mg/kg)	Kp at 0.25 h ([4]; 30 mg/kg, i.v. 30 mg/kg)	neuroprotective effect compared to the (R) stereoisomer ([5]; 0.5 µM)	neuroprotective effect on KA-induced neuronal death (relative neuronal death) [5]	neuroprotective effect on KA-induced neuronal death (relative neuronal death) ([5]; listed as N^6-methyl-(R)-roscovitine)	IC50 [6] [µM]	IC50 [7] [µM]	IC50 [8] [µM]	IC50 [9] [µM]	IC50 [10] [µM]
CC[C@H](CO)Nc1nc(NCc2ccccc2)c2ncn(C(C)C)c2n1 [(R)-roscovitine]	bind	bind	–	–	–	–	–	–	–	–	–	–	–	–	–	–	–	–
CC[C@@H](CO)Nc1nc(NCc2ccccc2)c2ncn(C(C)C)c2n1 [(S)-roscovitine]	preferentially bound and bind	did not bind	28% and 27.7%	comparable	36% and 35.8%	comparable	39% and 38.9%	31% and 30.7%	0.15	0.17	significantly stronger neuroprotective effect; also recorded: significantly increased neuroprotective activity	–	–	–	–	–	–	–
CC[C@H](CO)Nc1nc(N(C)Cc2ccccc2)c2ncn(C(C)C)c2n1 [N^6-methyl (R)-roscovitine]	–	bind	–	–	–	–	–	–	–	–	–	no significant neuroprotective effect	did not exhibited any neuroprotective effect	45	250	45	> 1000	> 1000
CC[C@H](CO)Nc1nc(OCc2ccccc2)c2ncn(C(C)C)c2n1 [O^6-(R)-roscovitine]	–	–	–	–	–	–	–	–	–	–	–	no significant neuroprotective effect; also recorded: did not exhibited any neuroprotective effect	–	100	250	200	700	> 1000
